From patent US9462803B2, “Organ preservation and/or perfusion” (Philadelphia College of Osteopathic Medicine, priority 2005, dated 2016)
“Also recorded” adds a separate entry of the source. Where no end group is shown, it is not given here.

Experiments:
[1] = test system: isolated perfused rat hearts; test: Isolated perfused rat heart ischemia/reperfusion (I/R) cardiac function, with or without PMNs; conditions: for cardioprotection: I/R+PMN
Method: Male Sprague Dawley rats (275-325 g, Ace Animals, Boyertown, Pa.) were anesthetized with 60 mg/kg pentobarbital sodium intraperitoneally (i.p.). Sodium heparin (1,000 U) was also administered i.p. The hearts were rapidly excised, the ascending aortas were cannulated, and retrograde perfusion of the heart was initiated with a modified Krebs buffer maintained at 37° C. at a constant pressure of 80 mmHg. The Krebs buffer had the following composition (in mmol/l): 17 dextrose, 120 NaCl, 25 NaHCO3, 2.5 CaCl2, 0.5 EDTA, 5.9 KCl, and 1.2 MgCl2. The perfusate was aerated with 95% O2 and 5% CO2 and equilibrated at a pH of 7.3-7.4. The two side arms in the perfusion line proximal to the heart inflow cannula allowed PMNs, plasma without PKC ε peptide inhibitor (control hearts) or plasma containing different concentrations of PKC ε peptide inhibitor (1 or 5 μM) to be directly infused into the coronary inflow line. Coronary flow was monitored by a flow meter (T106, Transonic System, Inc., Ithaca, N.Y.). LVDP and +dP/dtmax were monitored using a pressure transducer (SPR-524, Millar Instruments, Inc., Houston, Tex.), which was positioned in the left ventricular cavity. Hearts were immersed in a water-jacketed reservoir containing 160 mL of Krebs buffer maintained at 37° C. Coronary flow, LVDP and +dP/dtmax were recorded using a Powerlab Station acquisition system (ADInstruments, Grand Junction, Colo.) in conjunction with a computer.
LVDP, +dP/dtmax, and coronary flow were measured every 5 min for 15 min to equilibrate the hearts and obtain a baseline measurement. LVDP was defined as left ventricular end-systolic pressure minus left ventricular end-diastolic pressure. After 15 min, the flow of the Krebs buffer was reduced to zero for 20 min to induce global ischemia. At reperfusion, hearts were infused for 5 min with 200×10^6 PMN resuspended in 5 mL of Krebs buffer plus 5 mL of plasma at a rate of 1 mL/min. In some experiments, PKC ε peptide inhibitor (Genemed Synthesis, Inc., San Francisco, Calif.) was added to plasma at a final concentration of 1 or 5 μM. Sham I/R hearts were not subjected to ischemia and were not perfused with PMNs.
The following groups of isolated perfused rat hearts were used:
Group 1: Sham I/R hearts were not subjected to ischemia and were not perfused with PMNs, but were perfused with 5 mL of plasma (1 mL/min) at 35 minutes into perfusion (the same time point that I/R hearts would be given 5 mL of plasma, 15 minutes of baseline recordings plus 20 minutes ischemia). These hearts represented a control group to determine if the isolated rat heart can maintain LVDP and +dP/dtmax throughout the 80-minute protocol (n=6).
Group 2: Sham I/R+PKC ε peptide inhibitor (5 μM) hearts were not subjected to ischemia and not perfused with PMNs. These hearts were administered the PKC ε peptide inhibitor (5 μM, dissolved in plasma from a 5 mM stock in H2O) 35 minutes into perfusion. This group was employed to determine if the PKC ε peptide inhibitor causes a cardiotonic or cardiodepressant effect (n=6).
Group 3: I/R hearts were subjected to 20 min of ischemia and perfused with 5 mL of plasma (1 mL/min) during the first 5 min of reperfusion, but were not perfused with PMNs. These hearts represented a control group to determine if 20 min of ischemia followed by reperfusion stunned the heart, but LVDP and +dP/dtmax will recover to baseline values (initial) by the end of the 45-minute reperfusion period (n=7).
Group 4: I/R+PKC ε peptide inhibitor (5 μM, dissolved in plasma) hearts were subjected to 20 min of ischemia and not perfused with PMNs. These hearts were perfused with 5 mL of plasma+PKC ε peptide inhibitor during the first 5 min of reperfusion. This group was employed to determine if the PKC ε peptide inhibitor causes a cardiodepressant effect in the setting of I/R without PMNs (n=6). […]

rat aortic endothelium = test: NO release from rat aortic endothelium; conditions: basal 2.12±0.39
Method: FIG. 7 is a graph showing NO release from rat aortic endothelium in untreated (basal) segments compared to PKC ε peptide inhibitor treated segments (1, 5, and 10 μM).
FIG. 7 illustrates the NO release from rat aortic endothelium in untreated (basal) segments compared to PKC ε peptide inhibitor treated segments (1-10 μM). Acetylcholine (Ach) (10 μM) was used as a positive control. […] Although augmenting endothelial derived NO is usually associated with cardioprotection following I/R, it is speculated that the enzyme responsible for endothelial NO release (eNOS) may shift its product profile to the production of superoxide release when the substrate (L-arginine) or co-factor (BH4) is not readily available during early reperfusion.

[2] = I/R hearts without PMNs + inhibitor 5 μM
[3] = Sham I/R hearts (no ischemia, no PMNs) + inhibitor 5 μM, end of 80 min perfusion

Substance: PKC ε peptide inhibitor: Peptide inhibitor of PKC ε (Genemed Synthesis); preferred sequence EAVSLKPT (SEQ ID NO: 1), preferably myristoylated at the N-terminus (not fully specified (N-terminus); listed as Homo sapiens)
- change in +dP/dtmax, initial vs final [1, 2]: no significant difference
- change in LVDP, initial vs final [1, 2]: no significant difference
- final LVEDP ([1]; I/R+PMN+inhibitor (5 μM), end of 45 min reperfusion, p<0.01 vs I/R+PMN): 16±2 mmHg
- cardioprotection ([1]; 1 μM dose): not cardioprotective
- cardioprotection ([1]; 5 μM dose): most cardioprotective
- change in +dP/dtmax, initial vs final [1, 3]: did not show any significant change; also recorded: no significant difference
- change in LVDP, initial vs final [1, 3]: did not show any significant change; also recorded: no significant difference
- direct effect on cardiac contractile function ([1]; Sham I/R hearts, 5 μM): no direct effect
- NO release (rat aortic endothelium; 5 μM, p<0.05): 0.66±0.28 pmoles/mg tissue
- NO release (rat aortic endothelium; 10 μM): 0.26±0.42 pmoles/mg tissue
